Measurements published in patent US20260259222A1, “METHOD OF DIAGNOSING WOUNDS” (TRAUMA CARE CONSULT TRAUMATOLOGISCHE FORSCHUNG …, priority 2022, published 2026).

What was measured:
[1] = test system: p-rpS6 in human dermal fibroblasts (HDFs); test: in vitro scratch assay, p-rpS6-positive cells (immunofluorescence); type: cell-based; conditions: HDFs in basal medium; pre-treatment 10 to 30 min prior to scratch with 20 nM rapamycin or 10 μM U0126; fixed 30 min after scratch; vs DMSO
Protocol: (§1) To model a skin wound in vitro, cell cultures were subjected to a damage assay to monitor cellular response mechanisms. Commercially available human dermal fibroblasts (HDFs) were cultured in HDF medium (DMEM/F12 (Sigma Aldrich), 10% fetal bovine serum (Sigma Aldrich) and 4 mM L-Glutamine (Gibco)), subcultivated at 90% confluency and used for experiments below passage 15. Immortalised human keratinocytes (HaCaT) were maintained in HACAT medium (DMEM high glucose (Sigma Aldrich), 10% fetal bovine serum (Sigma Aldrich) and 2 mM L-Glutamine (Gibco) and subcultivated at 60% confluency. All cell culture experiments were performed in a humidified incubator at 37° C. and 5% CO2. […]
(§2) For immunofluorescence staining, the coverslips containing damaged and control cells were permeabilized using 0.5% Triton X100 for 5 min, washed three times with PBS for 5 min each, and blocked using PBS with 5% goat serum (VECS-1000, Vector Laboratories) for 1 h. […] For quantification of rpS6 and Erk phosphorylation, ten images per slide were taken along the scratch using an inverted microscope Nikon (Nikon Corporation, Tokyo, Japan) with set exposure times. These images were processed and quantified for total cell count and activated cell count (p-rpS6 or p-ERK positive cells) using set thresholds and particle analysis in Fiji. […]

[2] = test system: p-Erk in human dermal fibroblasts (HDFs); test: in vitro scratch assay, p-Erk-positive cells (immunofluorescence); type: cell-based; conditions: HDFs in basal medium; pre-treatment 10 to 30 min prior to scratch with 20 nM rapamycin or 10 μM U0126; fixed 30 min after scratch; vs DMSO
Protocol: as §1, §2

## N#CC(=C(/N)Sc1ccccc1N)/C(C#N)=C(\N)Sc1ccccc1N [U0126]
[1]
  effect on p-rpS6 induction (number of cells positive for p-rpS6) in the scratch assay: no significant effect on rpS6 phosphorylation
[2]
  effect on Erk phosphorylation (number of cells positive for p-Erk) in the scratch assay: almost completely abrogating p-Erk-positive cells
